Results on three molecules are retold here after ChEMBL document CHEMBL1129192, “D-Phe-Pro-p-Amidinobenzylamine: A potent and highly selective thrombin inhibitor” (Bioorg Med Chem Lett, 1996).

Each structure is given as a SMILES string. Where a SMILES comes first, the peptide text is derived from it.

A short description of assay [1]: Ratio of Thrombin Kass/Urokinase Kass.
Assay [2] in a line: Ratio of Thrombin Kass/plasmin Kass.
Assay [3] is described as follows: Ratio of Thrombin Kass/tissue plasminogen activator Kass.
The nature of assay [4]: Ratio of Thrombin Kass/trypsin Kass.

On to `N=C(N)c1ccc(CNC(=O)[C@@H]2CCCN2C(=O)[C@H](N)Cc2ccccc2)cc1`, for which the Selectivity in assay [1] came to 400000; in assay [2], 26000; in assay [3], 170000; in assay [4] it was 130.
Turning to `NC(N)=NCCCCNC(=O)[C@@H]1CCCN1C(=O)[C@H](N)Cc1ccccc1` (HELM PEPTIDE1{[dF].P.[N=C(N)NCCCCN[*:1]]}$$$$V2.0), the Selectivity is 31000 in assay [1], 4600 in assay [2], 920 in assay [3] and 33 in assay [4].
For the molecule `NC(N)=NCCC[C@@H](C=O)NC(=O)[C@@H]1CCCN1C(=O)[C@H](N)Cc1ccccc1`, the Selectivity in assay [1] was 13000; in assay [2], 390; in assay [3] it was 1800; in assay [4] it was 5.1.
